From patent US9868727B2, “Factor XIa inhibitors” (Merck Sharp & Dohme Corp., priority 2014, dated 2018)

Assays:
[1] = molecular target: T1, purified human Factor XIa (Homo sapiens, UniProt P03951); experiment: Factor XIa Assay; assay type: biochemical; conditions: fluorogenic substrate Z-Gly-Pro-Arg-AFC 100 μM, 40 pM enzyme, pH 7.4, read-out: F11a IC50
T1 construct: purified human Factor XIa; purchased Sekisui Diagnostics
Description: The effectiveness of a compound of the present invention as an inhibitor of Coagulation Factor XIa can be determined using a relevant purified serine protease, and an appropriate synthetic substrate. The rate of hydrolysis of the chromogenic or fluorogenic substrate by the relevant serine protease was measured both in the absence and presence of compounds of the present invention. Assays were conducted at room temperature or at 37° C. […] A decrease in the rate of fluorescence change in the presence of inhibitor is indicative of enzyme inhibition. Such methods are known to one skilled in the art. […]
Factor XIa determinations were made in 50 mM HEPES buffer at pH 7.4 containing 150 mM NaCl, 5 mM CaCl2, and 0.1% PEG 8000 (polyethylene glycol; JT Baker or Fisher Scientific). Determinations were made using purified human Factor XIa at a final concentration of 40 pM (Sekisui Diagnostics) and he synthetic substrate, Z-Gly-Pro-Arg-AFC, TFA salt (Sigma #C0980) at a concentration of 100 μM.
Activity assays were performed by diluting a stock solution of substrate at least tenfold to a final concentration ≦0.1 Km into a solution containing enzyme or enzyme equilibrated with inhibitor. Times required to achieve equilibration between enzyme and inhibitor were determined in control experiments. Initial velocities of product formation in the absence (VO) or presence of inhibitor (Vi) were measured. Assuming competitive inhibition, and that unity is negligible compared Km/[S], [I]/e, and [I]/e (where [S], [I], and e respectively represent the total concentrations, of substrate, inhibitor and enzyme), the equilibrium constant (Ki) for dissociation of the inhibitor from the enzyme can be obtained from the dependence of VO/Vi on [I] shown in the following equation.

[2] = molecular target: T2, purified Human plasma kallikrein (Homo sapiens, UniProt P03952); experiment: Kallikrein Assay; assay type: biochemical; conditions: Plasma Kallekrein IC50; fluorogenic substrate Acetyl-K-P-R-AFC, 0.5 nM enzyme, pH 7.4; read-out: PK IC50
T2 construct: yields a heavy chain (371 amino acids) and a light chain (248 amino acids); purchased Enzyme Research Laboratories
T2 sequence (P03952 391-638 limits assumed): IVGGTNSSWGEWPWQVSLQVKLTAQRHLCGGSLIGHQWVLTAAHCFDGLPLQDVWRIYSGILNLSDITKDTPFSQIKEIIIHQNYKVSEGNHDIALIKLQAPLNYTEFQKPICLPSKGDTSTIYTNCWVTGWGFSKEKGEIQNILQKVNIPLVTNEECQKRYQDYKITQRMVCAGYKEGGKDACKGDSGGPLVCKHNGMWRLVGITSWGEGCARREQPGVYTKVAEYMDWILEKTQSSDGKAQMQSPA
T2 sequence (P03952 20-390 partner limits assumed): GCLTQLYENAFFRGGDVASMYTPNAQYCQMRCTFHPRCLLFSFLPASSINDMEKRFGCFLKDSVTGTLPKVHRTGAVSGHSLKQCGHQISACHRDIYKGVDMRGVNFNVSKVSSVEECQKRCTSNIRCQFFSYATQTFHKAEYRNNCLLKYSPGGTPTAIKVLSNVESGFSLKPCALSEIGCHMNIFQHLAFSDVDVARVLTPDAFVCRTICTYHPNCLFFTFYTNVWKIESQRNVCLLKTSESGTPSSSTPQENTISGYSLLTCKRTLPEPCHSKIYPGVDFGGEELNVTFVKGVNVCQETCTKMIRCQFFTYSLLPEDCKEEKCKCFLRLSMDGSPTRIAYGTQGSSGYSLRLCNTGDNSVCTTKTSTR
Description: The effectiveness of a compound of the present invention as an inhibitor of Kallikrein can be determined using a relevant purified serine protease, and an appropriate synthetic substrate. The rate of hydrolysis of the chromogenic or fluorogenic substrate by the relevant serine protease was measured both in the absence and presence of compounds of the present invention. Assays were conducted at room temperature or at 37° C. […] A decrease in the rate of fluorescence change in the presence of inhibitor is indicative of enzyme inhibition. Such methods are known to one skilled in the art. The results of this assay are expressed as the inhibitory constant, K1.
Kallikrein determinations were made in 50 mM HEPES buffer at pH 7.4 containing 150 mM NaCl, 5 mM CaCl2, and 0.1% PEG 8000 (polyethylene glycol; Fisher Scientific). Determinations were made using purified Human plasma kallikrein at a final concentration of 0.5 nM (Enzyme Research Laboratories) and the synthetic substrate, Acetyl-K—P—R-AFC (Sigma # C6608) at a concentration of […].
Times required to achieve equilibration between enzyme and inhibitor were determined in control experiments. The reactions were performed under linear progress curve conditions and fluorescence increase measured at 405 Ex/510 Em nm. […] IC50 was determined by inflection point from a four parameter logistic curve fit. Ki was calculated using the Cheng Prusoff equation, Ki=IC50/(1+([S]/Km)).

T1 sequence (P03951 388-625 limits assumed): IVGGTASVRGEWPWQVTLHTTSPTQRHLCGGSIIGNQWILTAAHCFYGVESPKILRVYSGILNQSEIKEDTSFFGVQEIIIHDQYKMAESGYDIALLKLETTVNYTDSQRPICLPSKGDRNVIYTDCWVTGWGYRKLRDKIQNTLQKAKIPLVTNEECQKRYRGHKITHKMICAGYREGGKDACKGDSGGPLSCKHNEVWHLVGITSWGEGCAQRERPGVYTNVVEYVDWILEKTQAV
T1 sequence (P03951 19-387 partner limits assumed): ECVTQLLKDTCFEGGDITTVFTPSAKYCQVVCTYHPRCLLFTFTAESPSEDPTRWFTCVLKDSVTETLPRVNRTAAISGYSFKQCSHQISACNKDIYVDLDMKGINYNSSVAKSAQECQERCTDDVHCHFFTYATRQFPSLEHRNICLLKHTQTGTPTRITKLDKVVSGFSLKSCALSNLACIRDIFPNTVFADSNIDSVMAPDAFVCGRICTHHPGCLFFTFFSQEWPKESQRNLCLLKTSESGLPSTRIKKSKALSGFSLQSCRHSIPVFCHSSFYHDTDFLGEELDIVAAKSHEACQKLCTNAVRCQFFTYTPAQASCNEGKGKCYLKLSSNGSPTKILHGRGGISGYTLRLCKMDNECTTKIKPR

Row | Structure (SMILES) | IC50 [1] | IC50 [2]
1 | O=C(O)c1scc(-c2c[nH]c(C(Cc3ccccc3)c3ccc(-c4cc(Cl)ccc4-n4cnnn4)c[n+]3[O-])n2)c1F (single isomer, unassigned) [Example 10] | 10.1 nM | 117 nM
2 | O=C(O)c1ccc(-c2cnc(C(Cc3ccccc3)c3ccc(-c4cc(Cl)ccc4-n4cnnn4)c[n+]3[O-])[nH]2)cc1 (single isomer, unassigned) [Example 7] | 10.2 nM | 469 nM
3 | COC(=O)Nc1ccc(-c2cnc([C@H](Cc3ccccc3)c3ccc(-c4c(-n5cnnn5)ccc(Cl)c4F)c[n+]3[O-])[nH]2)cc1 [Example 23] | 1.04 nM | 1.54 nM
4 | COC(=O)Nc1ccc(-c2cnc([C@@H](Cc3ccccc3)c3ccc(-c4c(-n5cnnn5)ccc(Cl)c4F)c[n+]3[O-])[nH]2)cc1 [Example 24] | 2.36 nM | 88.7 nM
5 | COC(=O)Nc1ccc(-c2c[nH]c(C(Cc3ccccc3)c3ccc(-c4c(F)ccc(Cl)c4F)c[n+]3[O-])n2)cc1 (single isomer, unassigned) [Example 5] | 42.2 nM | 137 nM
6 | O=C(O)c1scc(-c2cnc(C(CC3CC3)c3ccc(-c4cc(Cl)ccc4-n4cnnn4)c[n+]3[O-])[nH]2)c1F (single isomer, unassigned) [Example 57, 2-(1-(5-(5-carboxy-4-fluorothiophen-3-yl)-1H-imidazol-2-yl)-2-cyclopropylethyl)-5-(5-chloro-2-(1H-tetrazol-1-yl)phenyl)pyridine 1-oxide] | 1.5 nM | 58 nM
7 | [O-][n+]1cc(-c2cc(Cl)ccc2-n2cnnn2)ccc1C(Cc1ccccc1)c1nc(-c2cccc(F)c2)c[nH]1 (single isomer, unassigned) [Example 4] | 38.9 nM | 624 nM
8 | O=C(O)c1cccc(-c2cnc(C(CC3CC3)c3ccc(-c4cc(Cl)ccc4-n4cnnn4)c[n+]3[O-])[nH]2)c1F (single isomer, unassigned) [Example 51, 3-[2-(1-{5-[5-chloro-2-(1H-tetrazol-1-yl)phenyl]-1-oxidopyridin-2-yl}-2-cyclopropylethyl)-1H-imidazol-5-yl]-2-fluorobenzoic acid] | 0.87 nM | 80 nM
9 | COC(=O)c1scc(-c2cnc(C(CC3CC3)c3ccc(-c4cc(Cl)ccc4-n4cnnn4)c[n+]3[O-])[nH]2)c1F (single isomer, unassigned) [Example 61, Methyl 4-[2-(1-{5-[5-chloro-2-(1H-tetrazol-1-yl)phenyl]-1-oxidopyridin-2-yl}-2-cyclopropylethyl)-1H-imidazol-5-yl]-3-fluorothiophene-2-carboxylate] | 53 nM | 343 nM
10 | N#Cc1ccc(-c2c[nH]c(C(Cc3ccc(F)cc3)c3ccc(-c4cc(Cl)ccc4-n4cnnn4)c[n+]3[O-])n2)cc1 (single isomer, unassigned) [Example 20] | 1.54 nM | 28.8 nM
11 | COC(=O)Nc1ccc(-c2cnc(C(CC3CC3)c3ccc(-c4cc(Cl)ccc4-c4cnco4)c[n+]3[O-])[nH]2)cc1 (single isomer, unassigned) [Example 69] | 48 nM | 358 nM
12 | COC(=O)Nc1ccc(-c2c[nH]c(C(Cc3ccc(F)cc3)c3ccc(-c4cc(Cl)ccc4C(F)F)c[n+]3[O-])n2)cc1 (single isomer, unassigned) [Example 11, 5-(5-chloro-2-(difluoromethyl)phenyl)-2-(2-(4-fluorophenyl)-1-(4-(4-((methoxycarbonyl)amino)phenyl)-1H-imidazol-2-yl)ethyl)pyridine 1-oxide] | 1.86 nM | 10.1 nM
13 | [O-][n+]1cc(-c2cc(Cl)ccc2-n2cnnn2)ccc1C(CC1CC1)c1ncc(-c2cccc(F)c2)[nH]1 (single isomer, unassigned) [Example 32] | 14.7 nM | 428 nM

Other lines, results leading:

Row | IC50 [1] | IC50 [2] | Structure (SMILES)
14 | 6.51 nM | 208 nM | COC(=O)Nc1ccc(-c2cnc(C(CC3CC3)c3ccc(-c4cc(Cl)ccc4-n4cc(Cl)nn4)c[n+]3[O-])[nH]2)cc1 (racemic) [Example 67]
15 | 0.5 nM | 24 nM | COC(=O)Nc1ccc(-c2[nH]c(C(CC3CC3)c3ccc(-c4cc(Cl)ccc4-n4cnnn4)c[n+]3[O-])nc2Cl)cc1 (single isomer, unassigned) [Example 79, 5-(5-chloro-2-(1H-tetrazol-1-yl)phenyl)-2-(1-(4-chloro-5-(4-((methoxycarbonyl)amino)phenyl)-1H-imidazol-2-yl)-2-cyclopropylethyl)pyridine 1-oxide]
16 | 48.2 nM | 887 nM | COC(=O)Nc1ccc(-c2cnc(C(CC3(C)CC3)c3ccc(-c4cc(Cl)ccc4-n4cnnn4)c[n+]3[O-])[nH]2)cc1 (single isomer, unassigned) [Example 43]
17 | 0.48 nM | 38.5 nM | COC(=O)Nc1ccc(-c2cnc(C(CC3CC3)c3ccc(-c4cc(Cl)ccc4-n4cnnn4)c[n+]3[O-])[nH]2)c(F)c1 (single isomer, unassigned) [Example 38]
18 | 19.5 nM | 2120 nM | Nc1ccc(-c2c[nH]c(C(CC3CC3)c3ccc(-c4cc(Cl)ccc4-n4cnnn4)c[n+]3[O-])n2)cn1 (single isomer, unassigned) [Example 49]
19 | 1.08 nM | 228 nM | Nc1ccc(-c2c[nH]c(C(CC3CC3)c3ccc(-c4cc(Cl)ccc4-n4cnnn4)c[n+]3[O-])n2)cn1 (single isomer, unassigned) [Example 50]
20 | 36.8 nM | 802 nM | COC(=O)Nc1ccc(-c2[nH]c(C(CC3CC3)c3ccc(-c4cc(Cl)ccc4-n4cnnn4)c[n+]3[O-])nc2C)cc1 (single isomer, unassigned) [Example 76, methyl {4-[2-(1-{5-[5-chloro-2-(1H-tetrazol-1-yl)phenyl]-1-oxidopyridin-2-yl}-2-cyclopropylethyl)-4-methyl-1H-imidazol-5-yl]phenyl}carbamate]
21 | 23.7 nM | 399 nM | COC(=O)Nc1ccc(-c2cnc(C(CC3CC3)c3ccc(-c4cc(Cl)ccc4-n4cnnn4)c[n+]3[O-])[nH]2)c(Cl)c1 (single isomer, unassigned) [Example 41]
22 | 1.34 nM | 1.52 nM | COC(=O)Nc1ccc(-c2nc([C@H](Cc3ccccc3)c3ccc(-c4cc(Cl)ccc4-n4cnnn4)c[n+]3[O-])[nH]c2Cl)cc1 [Example 1, (R) 5-(5-Chloro-2-(1H-tetrazol-1-yl)phenyl)-2-(1-(5-chloro-4-(4-((methoxycarbonyl)amino)phenyl)-1H-imidazol-2-yl)-2-phenylethyl)pyridine 1-oxide]
23 | 0.24 nM | 31.3 nM | COC(=O)Nc1ccc(-c2cnc(C(CC3CC3)c3ccc(-c4cc(Cl)ccc4-n4cnnn4)c[n+]3[O-])[nH]2)c(C)c1 (single isomer, unassigned) [Example 34]
24 | 1.52 nM | 39 nM | COC(=O)Nc1ccc(-c2cnc(C(CC3CC3)c3ccc(-c4cc(Cl)ccc4-n4cnnn4)c[n+]3[O-])[nH]2)cc1F (single isomer, unassigned) [Example 40]
25 | 0.9 nM | 62 nM | O=C(O)c1cccc(-c2c[nH]c(C(CC3CC3)c3ccc(-c4cc(Cl)ccc4-n4cnnn4)c[n+]3[O-])n2)c1 (single isomer, unassigned) [Example 53]
26 | 19 nM | 625 nM | COC(=O)Nc1ccc(-c2cnc(C(CC3CC3)c3ccc(-c4cc(Cl)ccc4-n4cnnn4)c[n+]3[O-])[nH]2)c(C)c1 (single isomer, unassigned) [Example 33]
